These results are taken from PubChem BioAssay (NCI).

By GI50 is commonly meant the concentration that inhibits growth by half. By TGI is commonly meant the concentration giving total growth inhibition. Higher therefore signals lower sensitivity of the cells.

Each structure is given as a SMILES string.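 How tested: cells in 96-well plates exposed to compound for 48 hours at five concentrations. The concentration for 50% growth inhibition is given as GI50. TGI is the concentration that stops growth completely.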

What all share (assay): DTP human tumour cell line panel, 48 h
Assay [1] has as its system HCT-15 colon.
The subject of assay [2] is HS 578T breast.
Assay [3] deals with HT29 colon.
Assay [4] concerns M14 melanoma.
The subject of assay [5] is OVCAR-3 ovarian.
The subject of assay [6] is SK-OV-3 ovarian.
Assay [7] concerns SW-620 colon.
The test system of assay [8] is TK-10 renal.
Assay [9] has as its system UACC-62 melanoma.
The subject of assay [10] is EKVX NSCLC.

As to `CCOC(=O)/C(=C/c1ccccc1)C(=O)c1ccccc1`, the GI50 in [1] is 2.97 µM; in assay [2], 3.03 µM; in assay [3], 2.78 µM; in [4], 3.77 µM; in assay [5], 8.14 µM; in assay [6], 14.4 µM. In addition, the GI50 in [7] was 2.77 µM; in assay [8], 3.41 µM; in assay [9], 2.73 µM. Besides, the TGI turned out to be 11.2 µM in assay [1]; 18.8 µM in assay [2]; 5.8 µM in assay [3]; 15.5 µM in [4]; 20.4 µM in [5]; 27.9 µM in assay [6]. For the same compound, the TGI in assay [7] was found to be 7.6 µM; in assay [8], 11.2 µM; in assay [9] it was 9.15 µM.

For `COc1ccc(C2=CC(c3ccc(Oc4ccnc5cc(Cl)ccc45)c(OC)c3)c3c(nc(OC)[nH]c3=O)N2)cc1` (stereo not drawn), the GI50 is 3.85 µM in [1]; 7.04 µM in assay [2]; 4.24 µM in assay [3]; 88.4 µM in [4]; 6.46 µM in assay [5]; more than 100 µM in assay [6]. The results for the GI50 in assay [7] and in assay [9] were 4.34 µM and 4.39 µM, respectively. In addition, the TGI in assay [1], in assay [2], in [3], in assay [4], in [5] and in assay [6] was more than 100 µM in each case. Also, the TGI in assay [7] was more than 100 µM; in [9], 35.7 µM.

With `COc1ccccc1-c1ccc2nc(NC(=O)Nc3cc(C(F)(F)F)cc(C(F)(F)F)c3)sc2c1`, the GI50 was 2.55 µM in assay [1]; 2.35 µM in assay [2]; 2.15 µM in [3]; 1.54 µM in [4]; 1.58 µM in assay [5]; 2.92 µM in assay [6]. In addition, the GI50 is 3.04 µM in [7], 4.03 µM in assay [8] and 1.56 µM in [9]. The TGI in assay [1] worked out at 10.6 µM; in [2] it was 7.67 µM; in assay [3], 9.21 µM; in [4], 3.22 µM; in [5], 4.58 µM; in assay [6], 11.4 µM. For the same compound, the TGI in assay [7] was 11.2 µM; in assay [8], 13.2 µM; in assay [9], 3.26 µM.

Consider `Fc1c[c-]c(-c2ccccn2)c(F)c1.[CH3-].[Pt+2].c1ccc([PH+](c2ccccc2)c2ccccn2)cc1`, for which the GI50 in [10] is 1.96 µM; in assay [1], 1.44 µM; in assay [2] it was 1.96 µM; in assay [3], 2.44 µM; in assay [5] it was 1.44 µM; in assay [6] it was 5.09 µM. In addition, the figures for the GI50 in assay [7] and in assay [8] were 1.92 µM and 3.59 µM, respectively. For the same compound, the TGI in assay [10] was 5.52 µM; in [1], 3.59 µM; in [2] it was 5.89 µM; in [3], more than 100 µM; in assay [5] it was 2.88 µM; in [6], more than 100 µM. For the same compound, the TGI in assay [7] amounted to 4.55 µM; in assay [8], 12.9 µM.

Turning to `COc1cc(OC)cc(-c2ccc(-c3ccc(C(=N)N)s3)s2)c1`, the 50% growth inhibitory concentration (GI50) in [1] is 0.294 µM; in assay [2], 1.35 µM; in assay [4] it was 1.1 µM; in assay [5], 1.81 µM; in assay [7], 0.291 µM; in [8], 1.84 µM. Moreover, in [9], the GI50 was 1.75 µM. Moreover, the TGI was 1.01 µM in assay [1]; 3.22 µM in [2]; 2.74 µM in [4]; 3.76 µM in [5]; 1.02 µM in assay [7]; 3.39 µM in assay [8]. The compound further yielded a TGI in assay [9] of 3.53 µM.

As to `C=CC1(c2ccccc2Cl)N/C(=C/OCC)CO1` (stereo not drawn), the total growth inhibition concentration (TGI) in [10], in [1], in assay [3], in assay [4], in assay [5] and in assay [6] was more than 100 µM throughout. For the same compound, the TGI in [7] is 28.4 µM; in assay [8], more than 100 µM; in assay [9], more than 100 µM.

Regarding `O=[N+]([O-])c1cccc(/C=C/c2ccccn2)c1`, the GI50 in assay [10] is 43.8 µM; in assay [1], 4.84 µM; in assay [2], 32.7 µM; in assay [4] it was 52.1 µM; in assay [5], 12.4 µM; in assay [6], 33.6 µM. The GI50 in [7] is 5.95 µM; in assay [9], 60 µM. The TGI in [10], in assay [1], in [2], in [4], in [5] and in [6] was more than 100 µM throughout. The TGI in [7] and in assay [9] was more than 100 µM in each case.

On to `NC(=S)N/N=C1\C(=O)N(CCc2ccccc2)C(=O)C1C(=O)NCCc1ccccc1` (stereo not drawn), for which the TGI in [10], in assay [1], in assay [3], in assay [4], in assay [5] and in assay [6] was more than 100 µM in each case. Further, the TGI in assay [7], in assay [8] and in [9] was more than 100 µM each time.

Take `Cc1ccc(/C=N/NS(=O)(=O)c2ccccc2)cc1`: the TGI in assay [10], in [1], in assay [3], in [4], in assay [5] and in [6] was more than 100 µM in each case. Further, the TGI in [7], in assay [8] and in assay [9] was more than 100 µM throughout.

`Cc1cc(C(=O)N[C@@H](CCC(=O)O)C(=O)O)sc1CC[C@@H]1CNc2nc(N)[nH]c(=O)c2C1`: the GI50 in [1] is 0.042 µM; in [2], 0.114 µM; in [3] it was less than 0.0178 µM; in assay [4] it was less than 0.0124 µM; in [5], 0.048 µM; in assay [6], less than 0.0205 µM. For the same compound, the GI50 is 0.0101 µM in assay [7], less than 0.0154 µM in assay [8] and 0.0378 µM in assay [9]. In addition, the TGI in assay [1], in assay [2], in [3], in assay [4], in assay [5] and in assay [6] was more than 100 µM each time. Further, the TGI in [7], in [8] and in [9] was more than 100 µM in each case.
